Data taken from ChEMBL document CHEMBL5550160, “Leveraging a rationally designed veliparib-based anilide eliciting anti-leukemic effects for the design of pH-responsive polymer nanoformulation” (Eur J Med Chem, 2024).
The source made the active and inactive calls. No cut-off for these calls is given here.

Experiments:
Histone deacetylase 2 = Histone deacetylase 2 (Homo sapiens, UniProt Q92769); test: Inhibition of HDAC2 (unknown origin) assessed as residual activity at 1.52 x 10^-9M (reference value: 99.81%); settings: dose 1.52 10^-9M
Chain of Histone deacetylase 2 (Q92769 whole entry): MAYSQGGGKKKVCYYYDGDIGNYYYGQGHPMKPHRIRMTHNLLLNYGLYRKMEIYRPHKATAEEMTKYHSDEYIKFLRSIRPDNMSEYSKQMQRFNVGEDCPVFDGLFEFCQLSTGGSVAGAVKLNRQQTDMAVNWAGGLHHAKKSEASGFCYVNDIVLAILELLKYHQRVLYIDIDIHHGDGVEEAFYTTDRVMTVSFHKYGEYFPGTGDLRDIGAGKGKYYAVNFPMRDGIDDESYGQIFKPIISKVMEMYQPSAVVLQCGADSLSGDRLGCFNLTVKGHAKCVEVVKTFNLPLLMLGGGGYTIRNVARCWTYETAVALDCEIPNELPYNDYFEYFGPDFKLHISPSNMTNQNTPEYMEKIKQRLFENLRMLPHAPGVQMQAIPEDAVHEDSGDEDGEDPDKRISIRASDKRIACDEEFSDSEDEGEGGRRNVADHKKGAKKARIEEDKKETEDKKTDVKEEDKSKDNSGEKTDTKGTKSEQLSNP

HL-60 [1] = test: Induction of cell cycle arrest in G0/G1 phase in human HL-60 cells at 0.5 to 1 times IC50 by PI staining based flow cytometry analysis; format: functional
HL-60 [2] = test: cells; settings: Homo sapiens
Description: Antiproliferative activity against human HL-60 cells assessed as inhibition of cell growth by MTT assay

[3] = biological target: Histone deacetylase 4 (Homo sapiens) (UniProt P56524); test: Inhibition of HDAC4 (unknown origin) assessed as residual activity at 3.33 x 10^-6M (reference value: 98.90%); settings: dose 3.33 10^-6M
Chain of Histone deacetylase 4 (Homo sapiens) (P56524 whole entry, the tested form may be a part): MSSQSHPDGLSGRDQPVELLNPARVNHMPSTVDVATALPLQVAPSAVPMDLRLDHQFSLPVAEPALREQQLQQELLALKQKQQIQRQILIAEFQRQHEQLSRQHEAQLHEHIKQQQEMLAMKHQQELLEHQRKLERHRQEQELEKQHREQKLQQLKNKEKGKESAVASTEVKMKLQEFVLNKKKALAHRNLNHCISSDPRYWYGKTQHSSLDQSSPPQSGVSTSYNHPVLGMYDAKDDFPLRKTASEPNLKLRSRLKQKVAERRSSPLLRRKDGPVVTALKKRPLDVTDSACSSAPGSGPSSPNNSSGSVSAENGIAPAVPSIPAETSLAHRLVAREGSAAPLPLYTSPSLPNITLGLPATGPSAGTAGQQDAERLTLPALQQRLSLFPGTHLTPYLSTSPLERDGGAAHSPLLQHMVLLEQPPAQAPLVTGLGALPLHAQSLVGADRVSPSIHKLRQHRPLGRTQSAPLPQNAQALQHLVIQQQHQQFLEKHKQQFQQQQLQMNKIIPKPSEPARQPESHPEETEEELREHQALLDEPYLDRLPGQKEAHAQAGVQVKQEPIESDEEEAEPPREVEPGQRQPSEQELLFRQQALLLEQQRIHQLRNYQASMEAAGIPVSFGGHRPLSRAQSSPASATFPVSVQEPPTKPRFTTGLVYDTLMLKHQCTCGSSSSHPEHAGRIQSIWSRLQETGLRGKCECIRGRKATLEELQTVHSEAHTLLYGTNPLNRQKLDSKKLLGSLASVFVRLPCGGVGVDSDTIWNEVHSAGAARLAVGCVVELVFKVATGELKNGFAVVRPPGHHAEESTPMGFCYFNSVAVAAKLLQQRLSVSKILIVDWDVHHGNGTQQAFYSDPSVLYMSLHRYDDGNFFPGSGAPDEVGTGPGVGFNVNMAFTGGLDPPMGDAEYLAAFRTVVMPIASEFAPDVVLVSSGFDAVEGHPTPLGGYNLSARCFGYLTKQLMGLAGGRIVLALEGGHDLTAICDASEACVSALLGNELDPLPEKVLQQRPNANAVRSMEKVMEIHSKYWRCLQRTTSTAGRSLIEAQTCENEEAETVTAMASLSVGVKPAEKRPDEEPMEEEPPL

Histone deacetylase 1 = Histone deacetylase 1 (Homo sapiens, UniProt Q13547); test: Inhibition of HDAC1 (unknown origin) using p53 residues 379 to 382 [RHKK(Ac)] as fluorogenic substrate assessed as residual activity at 5.08 x 10^-10M (reference value: 98.06%); settings: dose 5.08 10^-10M
Chain of Histone deacetylase 1 (Q13547 whole entry, the tested form may be a part): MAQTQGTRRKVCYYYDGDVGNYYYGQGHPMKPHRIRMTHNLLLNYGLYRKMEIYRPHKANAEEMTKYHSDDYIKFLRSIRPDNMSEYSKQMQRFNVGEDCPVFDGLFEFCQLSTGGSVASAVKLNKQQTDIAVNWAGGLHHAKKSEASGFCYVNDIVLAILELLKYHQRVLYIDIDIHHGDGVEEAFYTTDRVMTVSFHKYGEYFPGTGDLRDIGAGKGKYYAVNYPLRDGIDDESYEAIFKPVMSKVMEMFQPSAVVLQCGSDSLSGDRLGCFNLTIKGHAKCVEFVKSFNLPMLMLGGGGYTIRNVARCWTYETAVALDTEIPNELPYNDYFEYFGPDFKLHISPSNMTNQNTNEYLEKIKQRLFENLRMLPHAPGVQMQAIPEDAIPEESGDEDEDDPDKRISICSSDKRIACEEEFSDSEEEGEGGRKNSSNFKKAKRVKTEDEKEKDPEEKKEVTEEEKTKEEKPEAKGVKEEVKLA

PC-3 = test: cells; format: functional, cell-based; settings: Homo sapiens
Description: Antiproliferative activity against human PC-3 cells assessed as inhibition of cell growth by MTT assay

[4] = biological target: Histone deacetylase 4 (Homo sapiens) (UniProt P56524); test: Inhibition of HDAC4 (unknown origin) assessed as residual activity at 1.52 x 10^-9M (reference value: 98.90%); settings: dose 1.52 10^-9M
[5] = biological target: Histone deacetylase 9 (Homo sapiens) (UniProt Q9UKV0); test: Inhibition of HDAC9 (unknown origin) assessed as residual activity at 4.57 x 10^-9M (reference value: 97.55%); settings: dose 4.57 10^-9M
Chain of Histone deacetylase 9 (Homo sapiens) (Q9UKV0 whole entry): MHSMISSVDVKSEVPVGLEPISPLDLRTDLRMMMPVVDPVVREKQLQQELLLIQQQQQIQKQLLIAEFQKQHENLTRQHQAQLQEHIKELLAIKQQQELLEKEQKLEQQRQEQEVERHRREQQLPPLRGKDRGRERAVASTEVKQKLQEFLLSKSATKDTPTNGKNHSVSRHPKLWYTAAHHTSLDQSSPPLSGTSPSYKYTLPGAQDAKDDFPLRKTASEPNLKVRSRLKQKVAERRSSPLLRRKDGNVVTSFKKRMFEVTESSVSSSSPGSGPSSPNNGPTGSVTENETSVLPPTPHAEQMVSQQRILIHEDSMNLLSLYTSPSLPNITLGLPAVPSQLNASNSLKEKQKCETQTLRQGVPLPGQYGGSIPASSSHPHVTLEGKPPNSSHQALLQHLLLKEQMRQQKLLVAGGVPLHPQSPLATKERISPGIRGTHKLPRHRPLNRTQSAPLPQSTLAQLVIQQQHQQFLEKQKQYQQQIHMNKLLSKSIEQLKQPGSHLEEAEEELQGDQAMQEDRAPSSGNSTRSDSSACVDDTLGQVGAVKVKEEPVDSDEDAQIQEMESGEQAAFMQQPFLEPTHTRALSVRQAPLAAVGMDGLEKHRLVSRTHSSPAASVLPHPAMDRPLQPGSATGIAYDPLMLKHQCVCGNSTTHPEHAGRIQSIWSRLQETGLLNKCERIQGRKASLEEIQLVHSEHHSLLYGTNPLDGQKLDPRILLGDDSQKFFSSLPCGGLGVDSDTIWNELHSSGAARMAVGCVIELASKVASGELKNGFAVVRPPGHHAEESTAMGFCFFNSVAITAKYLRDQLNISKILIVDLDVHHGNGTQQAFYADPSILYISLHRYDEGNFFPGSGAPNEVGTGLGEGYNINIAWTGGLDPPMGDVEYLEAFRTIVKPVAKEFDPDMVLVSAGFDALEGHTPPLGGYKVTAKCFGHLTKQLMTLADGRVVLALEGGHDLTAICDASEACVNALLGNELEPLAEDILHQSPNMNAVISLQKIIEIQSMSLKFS

[6] = biological target: T1, Histone deacetylase 7 (Homo sapiens) (UniProt Q8WUI4); test: Inhibition of HDAC7 (unknown origin) assessed as residual activity at 1 x 10^-5M (reference value: 102.66%)
T1 sequence (whole entry): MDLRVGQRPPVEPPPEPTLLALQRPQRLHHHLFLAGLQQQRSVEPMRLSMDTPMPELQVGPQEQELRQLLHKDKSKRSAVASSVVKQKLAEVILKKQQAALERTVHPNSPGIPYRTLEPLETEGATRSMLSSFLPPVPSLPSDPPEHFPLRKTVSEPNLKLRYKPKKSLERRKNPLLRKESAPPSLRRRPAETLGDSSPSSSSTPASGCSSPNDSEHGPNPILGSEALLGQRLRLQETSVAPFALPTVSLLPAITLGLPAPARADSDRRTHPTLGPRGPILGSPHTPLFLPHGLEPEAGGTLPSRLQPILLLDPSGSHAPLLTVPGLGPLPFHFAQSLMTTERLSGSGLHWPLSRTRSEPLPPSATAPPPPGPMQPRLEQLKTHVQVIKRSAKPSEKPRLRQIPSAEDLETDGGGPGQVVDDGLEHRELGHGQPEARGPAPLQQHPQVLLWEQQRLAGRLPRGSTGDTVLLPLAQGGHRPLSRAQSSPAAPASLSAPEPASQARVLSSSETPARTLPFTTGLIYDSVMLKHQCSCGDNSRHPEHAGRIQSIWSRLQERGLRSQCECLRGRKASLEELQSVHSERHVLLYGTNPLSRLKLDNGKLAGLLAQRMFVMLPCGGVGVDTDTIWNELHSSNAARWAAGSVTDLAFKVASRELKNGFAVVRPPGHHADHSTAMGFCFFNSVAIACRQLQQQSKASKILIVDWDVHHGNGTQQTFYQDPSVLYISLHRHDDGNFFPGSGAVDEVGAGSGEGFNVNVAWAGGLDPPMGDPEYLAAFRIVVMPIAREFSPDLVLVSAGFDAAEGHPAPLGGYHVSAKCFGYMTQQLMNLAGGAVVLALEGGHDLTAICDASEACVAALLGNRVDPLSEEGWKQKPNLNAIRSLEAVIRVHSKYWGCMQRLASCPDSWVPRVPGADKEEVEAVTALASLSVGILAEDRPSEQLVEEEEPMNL

FaDu = test: cells; format: functional, cell-based; settings: Homo sapiens
Description: Antiproliferative activity against human FaDu cells assessed as inhibition of cell growth by MTT assay

[7] = biological target: Histone deacetylase 9 (Homo sapiens) (UniProt Q9UKV0); test: Inhibition of HDAC9 (unknown origin) assessed as residual activity at 1.1 x 10^-6M (reference value: 97.55%); settings: dose 1.1 10^-6M
[8] = biological target: Histone deacetylase 4 (Homo sapiens) (UniProt P56524); test: Inhibition of HDAC4 (unknown origin) assessed as residual activity at 1 x 10^-5M (reference value: 98.90%); settings: dose 1.0 10^-5M
[9] = biological target: Histone deacetylase 9 (Homo sapiens) (UniProt Q9UKV0); test: Inhibition of HDAC9 (unknown origin) assessed as residual activity at 1.23 x 10^-7M (reference value: 97.55%); settings: dose 1.23 10^-7M
[10] = biological target: T2, Histone deacetylase 8 (Homo sapiens) (UniProt Q9BY41); test: Inhibition of HDAC8 (unknown origin) assessed as residual activity at 1 x 10^-5M (reference value: 100%); settings: dose 1.0 10^-5M
T2 sequence (whole entry): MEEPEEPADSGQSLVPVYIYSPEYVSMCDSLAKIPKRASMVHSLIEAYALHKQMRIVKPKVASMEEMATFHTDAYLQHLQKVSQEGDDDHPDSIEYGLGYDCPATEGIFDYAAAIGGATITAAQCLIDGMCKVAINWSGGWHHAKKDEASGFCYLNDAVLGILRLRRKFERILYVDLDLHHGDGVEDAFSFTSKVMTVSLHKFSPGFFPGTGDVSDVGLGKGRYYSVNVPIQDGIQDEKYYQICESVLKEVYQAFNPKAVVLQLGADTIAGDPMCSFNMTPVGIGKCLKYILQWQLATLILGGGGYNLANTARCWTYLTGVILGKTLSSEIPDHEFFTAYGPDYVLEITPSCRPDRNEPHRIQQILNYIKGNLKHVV

Histone deacetylase 3 = Histone deacetylase 3 (Homo sapiens, UniProt O15379); test: Inhibition of HDAC3 (unknown origin) using p53 residues 379 to 382 [RHKK(Ac)] as fluorogenic substrate assessed as residual activity at 1.52 x 10^-9M (reference value: 103.08%); settings: dose 1.52 10^-9M
Chain of Histone deacetylase 3 (O15379 whole entry, the tested form may be a part): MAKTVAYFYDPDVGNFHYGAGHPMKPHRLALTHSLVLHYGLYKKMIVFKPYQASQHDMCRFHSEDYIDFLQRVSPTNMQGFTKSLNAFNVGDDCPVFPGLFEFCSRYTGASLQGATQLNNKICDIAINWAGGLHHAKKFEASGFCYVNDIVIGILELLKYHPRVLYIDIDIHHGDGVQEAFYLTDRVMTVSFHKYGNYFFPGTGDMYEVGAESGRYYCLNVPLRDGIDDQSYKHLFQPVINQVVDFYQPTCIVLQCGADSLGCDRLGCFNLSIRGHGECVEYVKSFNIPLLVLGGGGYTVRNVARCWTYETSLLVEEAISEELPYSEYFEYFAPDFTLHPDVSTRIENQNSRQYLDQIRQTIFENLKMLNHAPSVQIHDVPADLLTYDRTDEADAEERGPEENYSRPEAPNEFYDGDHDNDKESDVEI

[11] = biological target: T2, Histone deacetylase 8 (Homo sapiens); test: Inhibition of HDAC8 (unknown origin) assessed as residual activity at 4.12 x 10^-8M (reference value: 100%); settings: dose 4.12 10^-8M
[12] = biological target: Histone deacetylase 4 (Homo sapiens) (UniProt P56524); test: Inhibition of HDAC4 (unknown origin) assessed as residual activity at 1.37 x 10^-8M (reference value: 98.90%); settings: dose 1.37 10^-8M
HL-60 [13] = test: Induction of apoptosis in human HL-60 cells assessed as chromatin condensation at 0.5 to 1 times IC50 by DAPI staining based microscopic analysis; format: functional, cell-based
HL-60 [14] = test: Induction of cell cycle arrest in G0/G1 phase in human HL-60 cells assessed as downregulation of p-AKT protein expression at 0.5 to 1 times IC50 by Western blot analysis; format: functional, cell-based
[15] = biological target: Histone deacetylase 4 (Homo sapiens) (UniProt P56524); test: Inhibition of HDAC4 (unknown origin) assessed as residual activity at 3.70 x 10^-7M (reference value: 98.90%); settings: dose 3.7 10^-7M
[16] = biological target: T1, Histone deacetylase 7 (Homo sapiens); test: Inhibition of HDAC7 (unknown origin) assessed as residual activity at 1.52 x 10^-9M (reference value: 102.66%); settings: dose 1.52 10^-9M
[17] = biological target: Histone deacetylase 5 (Homo sapiens) (UniProt Q9UQL6); test: Inhibition of HDAC5 (unknown origin) assessed as residual activity at 1 x 10^-5M (reference value: 100%); settings: dose 1.0 10^-5M
Chain of Histone deacetylase 5 (Homo sapiens) (Q9UQL6 whole entry): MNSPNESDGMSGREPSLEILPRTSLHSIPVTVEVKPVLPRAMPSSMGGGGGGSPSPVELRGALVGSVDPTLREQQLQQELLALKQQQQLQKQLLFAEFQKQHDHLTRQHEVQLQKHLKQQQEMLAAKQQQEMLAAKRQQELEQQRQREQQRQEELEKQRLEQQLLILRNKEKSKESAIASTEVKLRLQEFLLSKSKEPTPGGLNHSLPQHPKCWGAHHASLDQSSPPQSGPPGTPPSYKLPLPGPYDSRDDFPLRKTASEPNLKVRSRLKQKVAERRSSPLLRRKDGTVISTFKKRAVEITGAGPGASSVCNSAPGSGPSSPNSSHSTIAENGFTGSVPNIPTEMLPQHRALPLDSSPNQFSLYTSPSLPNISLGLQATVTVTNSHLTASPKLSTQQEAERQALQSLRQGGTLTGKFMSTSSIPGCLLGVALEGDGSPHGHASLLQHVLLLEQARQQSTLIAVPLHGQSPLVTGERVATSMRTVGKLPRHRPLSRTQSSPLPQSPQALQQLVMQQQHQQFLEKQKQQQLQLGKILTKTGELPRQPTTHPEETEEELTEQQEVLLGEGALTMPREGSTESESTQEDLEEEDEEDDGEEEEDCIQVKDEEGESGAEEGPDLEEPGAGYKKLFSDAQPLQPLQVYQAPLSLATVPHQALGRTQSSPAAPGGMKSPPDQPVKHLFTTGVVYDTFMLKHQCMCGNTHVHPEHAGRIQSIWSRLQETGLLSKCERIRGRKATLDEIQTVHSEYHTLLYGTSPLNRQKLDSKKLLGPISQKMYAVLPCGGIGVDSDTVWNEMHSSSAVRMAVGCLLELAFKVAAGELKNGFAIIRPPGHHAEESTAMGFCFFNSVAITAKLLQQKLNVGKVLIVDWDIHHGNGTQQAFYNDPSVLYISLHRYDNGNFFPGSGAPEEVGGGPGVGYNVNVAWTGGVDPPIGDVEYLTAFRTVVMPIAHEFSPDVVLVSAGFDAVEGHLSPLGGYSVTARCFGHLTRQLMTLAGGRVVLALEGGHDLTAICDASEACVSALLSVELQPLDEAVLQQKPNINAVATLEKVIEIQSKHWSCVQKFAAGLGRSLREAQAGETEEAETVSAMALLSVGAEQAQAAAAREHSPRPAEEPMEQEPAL

Activity (Histone deacetylase 2): 98.2%
IC50 (HL-60 [2]): 0.69 µM
Activity [3]: 94.3%
Activity (Histone deacetylase 1): 93.5%
IC50 (PC-3): 4.01 µM
Activity [4]: 94.7%
Activity [5]: 82.9%
Activity [6]: 92%
IC50 (FaDu): > 10 µM
Activity [7]: 93%
Activity [8]: 127%
Activity [9]: 88.5%
Activity [10]: 69.5%
Activity (Histone deacetylase 3): 97.7%
Activity [11]: 107%
Activity [12]: 96.3%
Activity [15]: 108%
Activity [16]: 103%
Activity [17]: 111%
Structure (SMILES): NC(=O)c1cccc2[nH]c(-c3ccc(NCc4ccc(C(=O)Nc5ccccc5N)cc4)cc3)nc12
Activity (HL-60 [1]): Dose-Dependent Effect
Activity (HL-60 [13]): inactive
Activity (HL-60 [14]): Active
